In this test the target is Polyunsaturated fatty acid 5-lipoxygenase (Cavia porcellus). The test can be described thus: In vitro inhibition of polymorphonuclear leukocyte derived guinea pig 5-lipoxygenase.

Usually IC50 stands for the concentration at which inhibition is half-maximal. As to `O=C(CCCc1ccccc1)N(O)CCc1ccccc1`, the IC50 was determined as 130 nM.
The value for `O=C(c1ccc(OCc2ccccc2)cc1)N(O)CCc1ccccc1` was 50 nM.

Source of the values: BindingDB's records for doi:10.1021/jm00128a027 (Rorer Central Research, 1989).
